Assay results from ChEMBL document CHEMBL1201862, “PubChem BioAssay data set” (2004).
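Growth conditions: 96-well plates. Treatment: test compound, 48 hours, 5 concentrations. Analysis: linear interpolation between bracketing concentrations; unreached endpoints set to highest concentration. GI50: concentration for 50% inhibition of growth.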 Active and inactive are the calls of the source. Rule as the data show it: active = GI50 up to about 1.1 µM and inactive = higher. Non-standard residues stand in square brackets, D forms with d. Residues, ends and D or L forms follow the SMILES beside them. ξ: configuration not given here. ξLac(3-iPr) = CC(C)CC(O)C(=O)O; NMeV = CN[CH](C(=O)O)C(C)C; NMeA = CN[CH](C)C(=O)O; βAla = NCCC(=O)O

Assays:
Experiment in all cases: growth of human tumour cells (NCI), 48 h
UACC-257 = tested on: UACC-257
HOP-92 = tested on: HOP-92
ACHN = tested on: ACHN
MDA-MB-435 = tested on: MDA-MB-435
UACC-62 = tested on: UACC-62
RPMI-8226 = tested on: RPMI-8226
A498 = tested on: A498
HL-60 = tested on: HL-60
HT-29 = tested on: HT-29
SK-OV-3 = tested on: SK-OV-3
NCI-H460 = tested on: NCI-H460
SN12C = tested on: SN12C
OVCAR-8 = tested on: OVCAR-8
M14 = tested on: M14
HOP-62 = tested on: HOP-62
SNB-19 = tested on: SNB-19
K562 = tested on: K562
OVCAR-3 = tested on: OVCAR-3
DU-145 = tested on: DU-145
MCF7 = tested on: MCF7

Structure (SMILES)	GI50 (UACC-257)	GI50 (HOP-92)	GI50 (ACHN)	GI50 (MDA-MB-435)	GI50 (UACC-62)	GI50 (RPMI-8226)	GI50 (A498)	GI50 (HL-60)	GI50 (HT-29)	GI50 (SK-OV-3)	GI50 (NCI-H460)	GI50 (SN12C)	GI50 (OVCAR-8)	GI50 (M14)	GI50 (HOP-62)	GI50 (SNB-19)	GI50 (K562)	GI50 (OVCAR-3)	GI50 (DU-145)	GI50 (MCF7)
Cc1ccc(NC(Nc2ccc(C)cc2C)=C(C(Cl)=C(Cl)Cl)[N+](=O)[O-])c(C)c1	15.9 µM (inactive)	12.4 µM (inactive)	15.2 µM (inactive)	4.89 µM (inactive)	14.2 µM (inactive)	19.2 µM (inactive)	21.3 µM (inactive)	4.12 µM (inactive)	17.5 µM (inactive)	20 µM (inactive)	13.9 µM (inactive)	14.7 µM (inactive)	16.2 µM (inactive)	5.36 µM (inactive)	16.9 µM (inactive)	16.2 µM (inactive)	9.53 µM (inactive)	15.4 µM (inactive)	14.7 µM (inactive)	38.7 µM (inactive)
C[N+](C)(C)CCCCCc1c2nc(c(CCCCC[N+](C)(C)C)c3ccc([nH]3)c(CCCCC[N+](C)(C)C)c3nc(c(CCCCC[N+](C)(C)C)c4ccc1[nH]4)C=C3)C=C2	> 100 µM (inactive)	> 100 µM (inactive)	> 100 µM (inactive)	> 100 µM (inactive)	> 100 µM (inactive)	> 100 µM (inactive)	> 100 µM (inactive)	> 100 µM (inactive)	> 100 µM (inactive)	> 100 µM (inactive)	67.3 µM (inactive)	> 100 µM (inactive)	> 100 µM (inactive)	> 100 µM (inactive)	> 100 µM (inactive)	> 100 µM (inactive)	> 100 µM (inactive)	> 100 µM (inactive)	> 100 µM (inactive)	> 100 µM (inactive)
CCC(C)C1NC(=O)C2CCCN2C(=O)C(CC(C)C)OC(=O)CCNC(=O)C(C)N(C)C(=O)C(C(C)C)N(C)C1=O (stereo not given) (cyclo([ξLac(3-iPr)]PI[NMeV][NMeA][βAla]); configuration not given here)	6.32 µM (inactive)	17.9 µM (inactive)	4.58 µM (inactive)	2.43 µM (inactive)	2.21 µM (inactive)	1.29 µM (inactive)	23.9 µM (inactive)	0.593 µM (active)	1.32 µM (inactive)	20.6 µM (inactive)	1.19 µM (inactive)	6.84 µM (inactive)	3.48 µM (inactive)	1.91 µM (inactive)	2.77 µM (inactive)	49 µM (inactive)	3.16 µM (inactive)	6.7 µM (inactive)	4.05 µM (inactive)	2.64 µM (inactive)
CC1=C2C(=O)[C@H]3[C@@H](CC=C4C[C@@H](O)CC[C@@]43C)[C@@H]2CC[C@]12O[C@@H]1C[C@H](C)CN[C@H]1[C@H]2C [JERVINE]	> 49.3 µM (inactive)	11.9 µM (inactive)	> 41.3 µM (inactive)	> 100 µM (inactive)	> 53.7 µM (inactive)	> 100 µM (inactive)	> 41.2 µM (inactive)	> 44.2 µM (inactive)	> 55.2 µM (inactive)	> 40.6 µM (inactive)	> 44.8 µM (inactive)	> 43.4 µM (inactive)	> 47.1 µM (inactive)	> 41.7 µM (inactive)	> 39.5 µM (inactive)	> 41.7 µM (inactive)	> 61.9 µM (inactive)	> 40.6 µM (inactive)	> 100 µM (inactive)	> 100 µM (inactive)
